Laboratory results: patent US4734410A, “Lactam derivatives and their use as hypotensive agents” (Sankyo Company Limited, priority 1985, dated 1988)

The compounds below were run against T1, ACE (Oryctolagus cuniculus, UniProt P12822) (assay: in vitro inhibition of ACE (procedure of D. W. Cushman et al., hippurylhistidylleucine substrate)). Conditions: ACE extracted from rabbit lungs, pH 8.3, 37° C., 30 minutes, hippuric acid at 228 nm.
T1 construct: ACE extracted from rabbit lungs; from tissue; host or cells: rabbit lung
T1 sequence (P12822 34-1310): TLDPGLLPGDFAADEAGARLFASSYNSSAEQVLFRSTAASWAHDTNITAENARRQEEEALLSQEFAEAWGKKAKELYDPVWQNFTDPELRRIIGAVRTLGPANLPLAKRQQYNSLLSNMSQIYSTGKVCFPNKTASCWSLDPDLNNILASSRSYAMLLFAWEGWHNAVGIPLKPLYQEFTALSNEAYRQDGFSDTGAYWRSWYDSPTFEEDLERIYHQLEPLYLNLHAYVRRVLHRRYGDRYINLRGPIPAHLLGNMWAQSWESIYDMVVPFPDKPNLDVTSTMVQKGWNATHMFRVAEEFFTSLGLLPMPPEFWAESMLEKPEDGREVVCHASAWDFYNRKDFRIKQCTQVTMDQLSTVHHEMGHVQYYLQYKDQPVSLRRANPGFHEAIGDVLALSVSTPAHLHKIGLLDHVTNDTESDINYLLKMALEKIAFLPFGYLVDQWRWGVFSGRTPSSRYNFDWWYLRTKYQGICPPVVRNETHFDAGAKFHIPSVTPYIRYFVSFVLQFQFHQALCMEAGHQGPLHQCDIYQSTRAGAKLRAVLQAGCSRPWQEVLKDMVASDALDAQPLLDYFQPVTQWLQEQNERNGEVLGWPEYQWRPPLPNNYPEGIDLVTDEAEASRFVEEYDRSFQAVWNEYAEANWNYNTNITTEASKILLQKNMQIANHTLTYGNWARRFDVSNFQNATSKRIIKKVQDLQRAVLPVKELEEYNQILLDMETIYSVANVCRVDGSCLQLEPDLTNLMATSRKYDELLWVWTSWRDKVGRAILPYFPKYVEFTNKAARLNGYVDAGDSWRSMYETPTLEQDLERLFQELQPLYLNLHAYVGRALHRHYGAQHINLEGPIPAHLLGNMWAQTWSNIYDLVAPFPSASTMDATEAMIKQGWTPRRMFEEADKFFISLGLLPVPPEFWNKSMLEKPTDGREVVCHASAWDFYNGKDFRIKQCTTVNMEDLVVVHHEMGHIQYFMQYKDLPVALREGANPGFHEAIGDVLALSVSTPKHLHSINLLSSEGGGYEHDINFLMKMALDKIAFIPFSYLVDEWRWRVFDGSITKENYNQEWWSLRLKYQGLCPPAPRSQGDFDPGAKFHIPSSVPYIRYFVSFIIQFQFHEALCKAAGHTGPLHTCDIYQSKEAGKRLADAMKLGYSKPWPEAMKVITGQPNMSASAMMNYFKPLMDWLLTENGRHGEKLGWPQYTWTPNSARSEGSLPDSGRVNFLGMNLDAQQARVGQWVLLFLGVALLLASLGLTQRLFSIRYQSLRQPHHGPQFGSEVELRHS
Format: biochemical
From the text: As noted above, the compounds of the present invention have the ability to inhibit the activity of ACE, the enzyme which converts angiotensin I to angiotensin II and also inactivates bradykinin. The physiological activity of the compounds of the invention can be evaluated by determining the concentration of the test compound required to inhibit the activity of ACE by 50% in vitro (IC50), for example by the procedure of D. W. Cushman et al. [Biochemical Pharmacology, 20, 1637 (1971)]. Specifically, solutions of ACE extracted from rabbit lungs and, as substrate, hippurylhistidylleucine, to which had been added the test compound at various concentrations, were added to a borate buffer solution containing sodium chloride, and the pH was adjusted to a value of 8.3. The enzymatic reaction was allowed to proceed at 37° C. for 30 minutes, after which time the reaction was terminated by adding 1N aqueous hydrochloric acid. The hippuric acid formed by this reaction was extracted with ethyl acetate and the solvent was then distilled from the extract. The residual hippuric acid was dissolved in water. The amount of hippuric acid in the resulting aqueous solution was determined by the absorbency to ultraviolet radiation at 228 nm. The resulting values were then plotted to form a curve indicating the relationship between the amount of hippuric acid formed and the concentration of the test compound. The IC50 value can be obtained by reading on this curve the concentration of the test compound which reduces the amount of hippuric acid formed to one half of that formed when no test compound is present.

IC50 | SMILES
1.4 nM | O=C(O)CN1C[C@@H](c2ccccc2)CC[C@H](N[C@@H](CCc2ccccc2)C(=O)O)C1=O (single isomer, unassigned) [Test Compound A]
2 nM | O=C(O)CN1C[C@H](c2ccccc2)CC[C@H](N[C@@H](CCc2ccccc2)C(=O)O)C1=O (single isomer, unassigned) [Test Compound B]
1.7 nM | O=C(O)CN1C[C@@H](c2ccc(F)cc2)CC[C@H](N[C@@H](CCc2ccccc2)C(=O)O)C1=O [Test Compound C, α-{3(S)-[1(S)-carboxy-3-phenylpropylamino]-6(R)-(p-fluorophenyl)-2-oxoperhydroazepin-1-yl}acetic acid]

The compounds below were run on angiotensin I-induced hypertension (assay: inhibitory effect on angiotensin I-induced hypertension in vivo after oral administration to rats). Conditions: not given.
Description: In addition, the compounds of Examples 2, 3, 7, 10 and 12 were tested in vivo. Each of these test compounds was administered orally to rats and its inhibitory effect on angiotensin I-induced hypertension was determined.

SMILES | inhibitory effect on angiotensin I-induced hypertension
CCOC(=O)[C@H](CCc1ccccc1)N[C@H]1CC[C@H](c2ccccc2)CN(CC(=O)O)C1=O.Cl (single isomer, unassigned) [Example 2] | strong and lasting inhibitory effects
CCOC(=O)[C@H](CCc1ccccc1)N[C@H]1CC[C@@H](c2ccccc2)CN(CC(=O)O)C1=O.Cl (single isomer, unassigned) [Example 3] | strong and lasting inhibitory effects
CCOC(=O)[C@H](CCc1ccccc1)N[C@H]1CC[C@H](c2ccc(F)cc2)CN(CC(=O)O)C1=O.Cl [Example 7, α-{3(S)-[1(S)-Ethoxycarbonyl-3-phenylpropylamino]-6(R)-(p-fluorophenyl)-2-oxoperhydroazepin-1-yl}acetic acid hydrochloride] | strong and lasting inhibitory effects
CCCCOC(=O)[C@H](CCc1ccccc1)N[C@H]1CC[C@H](c2ccc(F)cc2)CN(CC(=O)O)C1=O.Cl [Example 10, α-{3(S)-[1(S)-Butoxycarbonyl-3-phenylpropylamino]-6(R)-(p-fluorophenyl)-2-oxoperhydroazepin-1-yl}acetic acid hydrochloride] | strong and lasting inhibitory effects
CCCCOC(=O)[C@H](CCc1ccccc1)N[C@H]1CC[C@H](c2ccccc2)CN(CC(=O)O)C1=O.Cl [Example 12, α-{3(S)-[1(S)-Butoxycarbonyl-3-phenylpropylamino]-2-oxo-6(R)-phenylperhydroazepin-1-yl}acetic acid hydrochloride] | strong and lasting inhibitory effects
